Active and inactive are the calls of the source. The calls are words filed in the database; no cut-off is given here.
How the values were obtained:
Homo sapiens [1] = experiment: Optimum % T/C value was measured against Human MX-1 breast Xenograft at the dose of 600 mg/kg (s.c.), schedule was Q01DX03 (three doses), day 1(first dose was given, tumor was implanted on day zero); format: functional
Homo sapiens [2] = experiment: Optimum % T/C value was measured against Human CX-1 colon Xenograft at the dose of 300-600mg/kg, schedule was Q01DX04 (four doses), day 1(first dose was given, tumor was implanted on day zero); IA means inactive; format: functional, organism-based
Homo sapiens [3] = experiment: Optimum % T/C value was measured against Human LX-1 lung Xenograft at the dose of 150 mg/kg, schedule was Q01DX03, day 1; format: functional
Mus musculus [4] = experiment: % T/C value was measured against Murine P388 Lymphocytic Leukemia cells in CDF1 mice at the dose 100 mg/kg; toxic; format: functional, organism-based; design: dose 100 mg/kg
Mus musculus [5] = experiment: % T/C value was measured against Murine P388 Lymphocytic Leukemia cells in CDF1 mice at the dose 12.5 mg/kg; format: functional
Mus musculus [6] = experiment: % T/C value was measured against Murine P388 Lymphocytic Leukemia cells in CDF1 mice at the dose 200 mg/kg; toxic; format: functional, organism-based; design: dose 200 mg/kg
Mus musculus [7] = experiment: % T/C value was measured against Murine P388 Lymphocytic Leukemia cells in CDF1 mice at the dose 25 mg/kg; format: functional
Mus musculus [8] = experiment: % T/C value was measured against Murine P388 Lymphocytic Leukemia cells in CDF1 mice at the dose 3.13 mg/kg; format: functional
Mus musculus [9] = experiment: % T/C value was measured against Murine P388 Lymphocytic Leukemia cells in CDF1 mice at the dose 50 mg/kg; toxic; format: functional, organism-based; design: dose 50 mg/kg
Mus musculus [10] = experiment: % T/C value was measured against Murine P388 Lymphocytic Leukemia cells in CDF1 mice at the dose 6.25 mg/kg; format: functional
Mus musculus [11] = experiment: Optimum % T/C value was measured against Murine B16 melanocarcinoma cells at the dose of 12.5 mg/kg, schedule was Q01DX09, day 1; format: functional
Mus musculus [12] = experiment: Optimum % T/C value was measured against Murine CD8F1 mammary cells at the dose of 250 mg/kg (subcutaneous), schedule was Q01DX01 (one dose), day 21(21 dose was given, tumor was implanted on day zero); format: functional
Mus musculus [13] = experiment: Optimum % T/C value was measured against Murine L1210 lymphoid leukemia cells at the dose of 25 mg/kg, schedule was Q01DX09 (nine doses), day 1(first dose was given, tumor was implanted on day zero); format: functional
Mus musculus [14] = experiment: Optimum % T/C value was measured against Murine Lewis lung carcinoma cells at the dose of 3.12-50mg/kg, schedule was Q01DX09 (nine doses), day 1(first dose was given, tumor was implanted on day zero); inactive; format: functional, organism-based
Mus musculus [15] = experiment: Optimum % T/C value was measured against Murine colon 38 cells at the dose of 100 mg/kg (subcutaneous), schedule was Q01DX02 (two doses), day 2(second dose was given, tumor was implanted on day zero); format: functional, MC-38
Mus musculus [16] = experiment: Change in weight of P388 lymphocytic leukemia infected mice was determined when the compound was administered at dose of 12.5 mg/kg; format: functional
Mus musculus [17] = experiment: Change in weight of P388 lymphocytic leukemia infected mice was determined when the compound was administered at dose of 25 mg/kg; format: functional
Mus musculus [18] = experiment: Change in weight of P388 lymphocytic leukemia infected mice was determined when the compound was administered at dose of 3.13 mg/kg; format: functional
Mus musculus [19] = experiment: Change in weight of P388 lymphocytic leukemia infected mice was determined when the compound was administered at dose of 6.25 mg/kg; format: functional
Mus musculus [20] = experiment: % T/C value was measured against Murine P388 Lymphocytic Leukemia cells in CDF1 mice at the dose 100 mg/kg; format: functional
Mus musculus [21] = experiment: % T/C value was measured against Murine P388 Lymphocytic Leukemia cells in CDF1 mice at the dose 200 mg/kg; format: functional
Mus musculus [22] = experiment: % T/C value was measured against Murine P388 Lymphocytic Leukemia cells in CDF1 mice at the dose 50 mg/kg; format: functional
Mus musculus [23] = experiment: Change in weight of P388 lymphocytic leukemia infected mice was determined when the compound was administered at dose of 100 mg/kg; format: functional
Mus musculus [24] = experiment: Change in weight of P388 lymphocytic leukemia infected mice was determined when the compound was administered at dose of 50 mg/kg; format: functional
Mus musculus [25] = experiment: Change in weight of P388 lymphocytic leukemia infected mice was determined when the compound was administered at dose of 200 mg/kg; format: functional
Mus musculus [26] = experiment: % T/C value was measured against Murine P388 Lymphocytic Leukemia cells in CDF1 mice at the dose 25 mg/kg; toxic; format: functional, organism-based; design: dose 25 mg/kg

SMILES	T/C (Mus musculus [4])	T/C (Mus musculus [5]) [%]	T/C (Mus musculus [6])	T/C (Mus musculus [7]) [%]	T/C (Mus musculus [8]) [%]	T/C (Mus musculus [10]) [%]	Weight change (Mus musculus [16])	Weight change (Mus musculus [17])	Weight change (Mus musculus [18]) [g]	Weight change (Mus musculus [19]) [g]	T/C (Mus musculus [20]) [%]	T/C (Mus musculus [22]) [%]	Weight change (Mus musculus [23]) [g]	Weight change (Mus musculus [24])	also measured
COc1ccc2c(c1)CCn1c(C)c(COC(=O)NC(C)C)c(COC(=O)NC(C)C)c1-2	Toxic	153	Toxic	153	142	136	-3 g	-5.6 g	-1.1	-2.1	–	–	–	–	T/C (Homo sapiens [1]): -100%; T/C (Homo sapiens [2]): inactive; T/C (Homo sapiens [3]): 55%; T/C (Mus musculus [9]): Toxic; T/C (Mus musculus [11]): 180%; T/C (Mus musculus [12]): -27%; T/C (Mus musculus [13]): 152%; T/C (Mus musculus [14]): inactive; T/C (Mus musculus [15]): 48%
CNC(=O)OCc1c(COC(=O)NC)c(-c2ccccc2)n2c1CCC2	–	–	–	–	–	–	–	–	–	–	124	124	-1.8	-2.1 g	T/C (Mus musculus [21]): 60%; Weight change (Mus musculus [25]): -3.5 g
CNC(=O)OCc1c(COC(=O)NC)c(-c2ccc(OC)cc2)n(C)c1C	Toxic	138	–	145	–	135	-3.2 g	-3.4 g	–	-2.4	–	152	–	-4.4 g	–
COc1ccc2c(c1)CCn1c(C)c(COC(=O)NC(=O)NC3CCCCC3)c(COC(=O)NC(=O)NC3CCCCC3)c1-2	–	134	Toxic	137	–	137	-4.4 g	-6.7 g	–	-3.3	92	151	-6	-6.5 g	–
CNC(=O)OCc1c(COC(=O)NC)c(-c2ccccc2)n(C)c1C	Toxic	130	–	145	–	135	-3.3 g	-3.9 g	–	-2.5	–	90	–	-4.6 g	–
CNC(=O)OCc1c(COC(=O)NC)c(-c2ccc(OC)cc2)n2c1CCC2	–	132	Toxic	132	–	–	-3.2 g	-3.3 g	–	–	125	131	-4	-4 g	–
CCNC(=O)OCc1cn2c(c1COC(=O)NCC)-c1ccccc1CC2C (stereo not drawn)	Toxic	185	Toxic	–	142	141	-6 g	–	-1.3	-1.2	–	–	–	–	T/C (Mus musculus [26]): Toxic; T/C (Mus musculus [9]): Toxic
CNC(=O)OCc1cn2c(c1COC(=O)NC)-c1ccccc1CC2C (stereo not drawn)	Toxic	153	Toxic	169	138	138	-4.4 g	-4.8 g	-0.3	-1	–	79	–	-5 g	–
CC1Cc2ccccc2-c2c(COC(=O)NC3CCCCC3)c(COC(=O)NC3CCCCC3)cn21 (stereo not drawn)	Toxic	178	Toxic	182	–	–	-4.3%	-4.6%	–	–	–	101	–	-6.4%	–

From ChEMBL document CHEMBL1122755, “Synthesis and murine antineoplastic activity of bis[(carbamoyloxy)methyl] derivatives of pyrrolo[2,1-a]isoquinoline” (1984)
